According to PubChem BioAssay AID2060494 (Molecular Pharmacology Branch, DTP, NCI, 2025):

Tested on: 435261-313-R-J1-PDC complex spheroid viability
Assay: Anticancer human tumor 435261-313-R-J1-PDC patient-derived colon adenocarcinoma cell line growth inhibition [GQUAD]
Conditions: for IC50: curve of first compound; for viability, T/C: stronger effect = lower value; active = viability on the fitted dose curve at most 10% of control; inactive = the rest
Summary of the method: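 Viability of tumor cells grown as complex spheroids with endothelial and stromal cells, exposed to drug combinations. Top concentration at or near clinical Cmax (else 10 microM), diluted in half-log increments.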

[1] = second compound 0.0316 µM, first compound 0.0316 µM
[2] = second compound 0.0316 µM, first compound 0.1 µM
[3] = second compound 0.0316 µM, first compound 0.316 µM
[4] = second compound 0.0316 µM, first compound 1 µM
[5] = second compound 0.0316 µM, first compound 3.16 µM
[6] = second compound 0.0316 µM, first compound 10 µM
[7] = second compound 0.1 µM, first compound 0.0316 µM
[8] = second compound 0.1 µM, first compound 0.1 µM
[9] = second compound 0.1 µM, first compound 0.316 µM
[10] = second compound 0.1 µM, first compound 1 µM
[11] = second compound 0.1 µM, first compound 3.16 µM
[12] = second compound 0.1 µM, first compound 10 µM
[13] = second compound 0.316 µM, first compound 0.0316 µM
[14] = second compound 0.316 µM, first compound 0.1 µM
[15] = second compound 0.316 µM, first compound 0.316 µM
[16] = second compound 0.316 µM, first compound 1 µM
[17] = second compound 0.316 µM, first compound 3.16 µM
[18] = second compound 0.316 µM, first compound 10 µM
[19] = second compound 1 µM, first compound 0.0316 µM
[20] = second compound 1 µM, first compound 0.1 µM
[21] = second compound 1 µM, first compound 0.316 µM
[22] = second compound 1 µM, first compound 1 µM
[23] = second compound 1 µM, first compound 3.16 µM
[24] = second compound 1 µM, first compound 10 µM
[25] = second compound 3.16 µM, first compound 0.0316 µM
[26] = second compound 3.16 µM, first compound 0.1 µM
[27] = second compound 3.16 µM, first compound 0.316 µM
[28] = second compound 3.16 µM, first compound 1 µM
[29] = second compound 3.16 µM, first compound 3.16 µM
[30] = second compound 3.16 µM, first compound 10 µM
[31] = second compound 10 µM, first compound 0.0316 µM
[32] = second compound 10 µM, first compound 0.1 µM
[33] = second compound 10 µM, first compound 0.316 µM
[34] = second compound 10 µM, first compound 1 µM
[35] = second compound 10 µM, first compound 3.16 µM
[36] = second compound 10 µM, first compound 10 µM
[37] = second compound 0.0316 µM, first compound 0.000999 µM
[38] = second compound 0.0316 µM, first compound 0.00316 µM
[39] = second compound 0.0316 µM, first compound 0.00999 µM
[40] = second compound 0.0316 µM, first compound 0.0999 µM
[41] = second compound 0.1 µM, first compound 0.000999 µM
[42] = second compound 0.1 µM, first compound 0.00316 µM
[43] = second compound 0.1 µM, first compound 0.00999 µM
[44] = second compound 0.1 µM, first compound 0.0999 µM
[45] = second compound 0.316 µM, first compound 0.000999 µM
[46] = second compound 0.316 µM, first compound 0.00316 µM
[47] = second compound 0.316 µM, first compound 0.00999 µM
[48] = second compound 0.316 µM, first compound 0.0999 µM
[49] = second compound 1 µM, first compound 0.000999 µM
[50] = second compound 1 µM, first compound 0.00316 µM
[51] = second compound 1 µM, first compound 0.00999 µM
[52] = second compound 1 µM, first compound 0.0999 µM
[53] = second compound 3.16 µM, first compound 0.000999 µM
[54] = second compound 3.16 µM, first compound 0.00316 µM
[55] = second compound 3.16 µM, first compound 0.00999 µM
[56] = second compound 3.16 µM, first compound 0.0999 µM
[57] = second compound 10 µM, first compound 0.000999 µM
[58] = second compound 10 µM, first compound 0.00316 µM
[59] = second compound 10 µM, first compound 0.00999 µM
[60] = second compound 10 µM, first compound 0.0999 µM
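Note: spheroids exposed to the agents for seven days before readout.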
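Throughout, for viability, T/C: percent of vehicle control viability with DMSO wells as 100%.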

C=CCn1c(=O)c2cnc(Nc3ccc(N4CCN(C)CC4)cc3)nc2n1-c1cccc(C(C)(C)O)n1 + CN(C)c1ccc(Nc2c3ccc(NC(=O)CCN4CCCC4)cc3nc3cc(NC(=O)CCN4CCCC4)ccc23)cc1
inactive: viability, T/C [1] 128% | viability, T/C [2] 145% | viability, T/C [3] 84.1% | viability, T/C [4] 103% | viability, T/C [5] 81.8% | viability, T/C [6] 65.2% | viability, T/C [7] 96.4% | viability, T/C [8] 89.1% | viability, T/C [9] 87.9% | viability, T/C [10] 69.7% | viability, T/C [11] 91.7% | viability, T/C [12] 73% | viability, T/C [13] 92.7% | viability, T/C [14] 81.5% | viability, T/C [15] 86.6% | viability, T/C [16] 78.1% | viability, T/C [17] 64% | viability, T/C [18] 45.5% | viability, T/C [19] 80.8% | viability, T/C [20] 98.7% | viability, T/C [21] 66.6% | viability, T/C [22] 90.4% | viability, T/C [23] 75.8% | viability, T/C [24] 54.6% | viability, T/C [25] 50.9% | viability, T/C [26] 48.2% | viability, T/C [27] 63.4% | viability, T/C [28] 70.1% | viability, T/C [29] 57.8% | viability, T/C [30] 34% | viability, T/C [31] 32.7% | viability, T/C [32] 90.5% | viability, T/C [33] 44.8% | viability, T/C [34] 31.8% | viability, T/C [35] 23.9% | viability, T/C [36] 9.35%
> 10000 nM: IC50 (second compound 0.0316 µM) | IC50 (second compound 0.1 µM) | IC50 (second compound 1 µM) | IC50 (second compound 3.16 µM)
7580 nM: IC50 (second compound 0.316 µM)
353 nM: IC50 (second compound 10 µM)

COc1ncnc(C2CC2)c1-c1ncc2cnn(Cc3ccc(-c4nc(C(F)(F)F)cn4C(C)C)cc3)c2n1 + CN(C)c1ccc(Nc2c3ccc(NC(=O)CCN4CCCC4)cc3nc3cc(NC(=O)CCN4CCCC4)ccc23)cc1
inactive: viability, T/C [1] 101% | viability, T/C [2] 94.3% | viability, T/C [3] 90% | viability, T/C [4] 84.2% | viability, T/C [5] 85.9% | viability, T/C [6] 75.1% | viability, T/C [7] 103% | viability, T/C [8] 89.6% | viability, T/C [9] 113% | viability, T/C [10] 94% | viability, T/C [11] 111% | viability, T/C [12] 91.8% | viability, T/C [13] 90.7% | viability, T/C [14] 94% | viability, T/C [15] 80.9% | viability, T/C [16] 64% | viability, T/C [17] 75.4% | viability, T/C [18] 80.9% | viability, T/C [19] 82.6% | viability, T/C [20] 70.8% | viability, T/C [21] 76.4% | viability, T/C [22] 69.8% | viability, T/C [23] 78.6% | viability, T/C [24] 77.6% | viability, T/C [25] 50.5% | viability, T/C [26] 74.3% | viability, T/C [27] 69% | viability, T/C [28] 41.2% | viability, T/C [29] 56.9% | viability, T/C [30] 30.2% | viability, T/C [31] 31.4% | viability, T/C [32] 33.6% | viability, T/C [33] 28.8% | viability, T/C [34] 27.9% | viability, T/C [35] 32.9% | viability, T/C [36] 10.7%
< 31.6 nM: IC50 (second compound 10 µM)
3140 nM: IC50 (second compound 3.16 µM)
> 10000 nM: IC50 (second compound 0.0316 µM) | IC50 (second compound 0.1 µM) | IC50 (second compound 0.316 µM) | IC50 (second compound 1 µM)

Cc1[nH]c2ccccc2c1CCNCc1ccc(/C=C/C(=O)NO)cc1 + CN(C)c1ccc(Nc2c3ccc(NC(=O)CCN4CCCC4)cc3nc3cc(NC(=O)CCN4CCCC4)ccc23)cc1
74.7 nM: IC50 (second compound 0.316 µM)
< 0.999 nM: IC50 (second compound 10 µM)
active: viability, T/C [3] 9.48% | viability, T/C [15] 9.1%
25.5 nM: IC50 (second compound 3.16 µM)
inactive: viability, T/C [37] 84.5% | viability, T/C [38] 86% | viability, T/C [39] 95% | viability, T/C [1] 69.2% | viability, T/C [40] 45.9% | viability, T/C [41] 134% | viability, T/C [42] 96.6% | viability, T/C [43] 79.4% | viability, T/C [7] 59.7% | viability, T/C [44] 50.8% | viability, T/C [9] 11% | viability, T/C [45] 104% | viability, T/C [46] 99.5% | viability, T/C [47] 91.4% | viability, T/C [13] 69.4% | viability, T/C [48] 43.8% | viability, T/C [49] 76.7% | viability, T/C [50] 74.3% | viability, T/C [51] 58.5% | viability, T/C [19] 62.1% | viability, T/C [52] 45.5% | viability, T/C [21] 10.1% | viability, T/C [53] 119% | viability, T/C [54] 79.2% | viability, T/C [55] 62.7% | viability, T/C [25] 56.2% | viability, T/C [56] 28.5% | viability, T/C [27] 6.97% | viability, T/C [57] 44.3% | viability, T/C [58] 49.4% | viability, T/C [59] 23.3% | viability, T/C [31] 18.3% | viability, T/C [60] 22.6% | viability, T/C [33] 4.75%
80.3 nM: IC50 (second compound 0.0316 µM)
55.8 nM: IC50 (second compound 0.1 µM)
61.4 nM: IC50 (second compound 1 µM)

Cn1ncnc1[C@H]1c2n[nH]c(=O)c3cc(F)cc(c23)N[C@@H]1c1ccc(F)cc1 + Cc1[nH]c2ccc(F)cc2c1-c1nc2c3cccnc3c3ncccc3c2[nH]1
< 0.999 nM: IC50 (second compound 3.16 µM) | IC50 (second compound 10 µM)
inactive: viability, T/C [37] 125% | viability, T/C [38] 95.4% | viability, T/C [39] 87.6% | viability, T/C [1] 77.8% | viability, T/C [40] 93.9% | viability, T/C [3] 87% | viability, T/C [41] 79.2% | viability, T/C [42] 83.9% | viability, T/C [43] 114% | viability, T/C [7] 101% | viability, T/C [44] 99.5% | viability, T/C [9] 80.9% | viability, T/C [45] 86.9% | viability, T/C [46] 110% | viability, T/C [47] 92.1% | viability, T/C [13] 71.7% | viability, T/C [48] 82.9% | viability, T/C [15] 68.5% | viability, T/C [49] 60.2% | viability, T/C [50] 67.9% | viability, T/C [51] 94.8% | viability, T/C [19] 72.2% | viability, T/C [52] 60.3% | viability, T/C [21] 56.2% | viability, T/C [53] 43.7% | viability, T/C [54] 37.5% | viability, T/C [55] 25.6% | viability, T/C [25] 38.6% | viability, T/C [56] 31.8% | viability, T/C [27] 41.7% | viability, T/C [57] 18.4% | viability, T/C [58] 32.4% | viability, T/C [59] 31.2% | viability, T/C [31] 22.7% | viability, T/C [60] 22.6% | viability, T/C [33] 22.1%
> 316 nM: IC50 (second compound 0.0316 µM) | IC50 (second compound 0.1 µM) | IC50 (second compound 0.316 µM) | IC50 (second compound 1 µM)
